Source: patent US20240245793A1, “PSD-95 INHIBITORS AND USES THEREOF” (priority 2021, published 2024)
Read-outs that look alike come from different tables or passages of the source.

Tested on: HeLa cells stably expressing HaloGFP
Assay: Chloroalkane penetration assay (CAPA), membrane permeability and cellular uptake
Format: cell-based
Source text: Since PSD-95 is located intracellularly, it is essential for any drug targeting PSD-95 to efficiently cross the cell membrane. To assess the cellular permeability and delivery to the cytosol of the compounds as defined herein, the cellular chloroalkane penetration assay (CAPA) may be used (Peraro et al. 2018). This assay takes advantage of a modified haloalkane dehalogenase designed to covalently bind chloroalkane (CA) molecules. A HeLa cell line expressing a fusion protein comprising a HaloTag, a green fluorescent protein (GFP) and a mitochondria-targeting peptide is used to report cytosolic delivery. The general format of the CAPA is a pulse-chase assay (Deprey & Kritzer, 2020). Cells expressing the HaloTag enzyme are incubated with CA-tagged peptides. When these CA-peptides penetrate the cell membrane and reach the cytosol, they will bind to and react with the HaloTag (pulse step). Following a washing step, the cells are incubated with a CA-tagged dye that quantitatively penetrates the cell membrane and reacts with remaining unreacted HaloTag sites (chase step). Flow cytometry is used to measure the fluorescence intensity of the cells and the measured fluorescence is inversely proportional to the amount of CA-peptides that reach the penetrated the cells and can thus be used to assess cytosolic delivery. The obtained data is commonly expressed as CP50 values, the concentration at which 50% cell penetration is observed. The CP50 value of a compound may be measured as described in example 4.
The membrane permeability of compounds 10 to 75 was determined in HeLa cells stably expressing HaloGFP exclusively located in the cytosol. Cells were seeded at a density of 40.000 cells/well one day prior to the experiment. After the growth media was aspirated and replaced by 100 μL of Opti-MEM, 25 μL of a prepared serial dilution of the ligand in Opti-MEM was added to the cells (constant DMSO concentration), and the plate was incubated for 4 h at 37° C. and 5% CO2. The contents of the wells were aspirated, and cells were washed with fresh Opti-MEM for 15 min. After aspiration of the wash, the cells were incubated with TAMRA-CA (5 μM) for 15 min. After aspiration of the chase solution, cells were washed with Opti-MEM for 30 min. Following removal of the wash, cells were trypsinized, resuspended in PBS (2% FBS), and analyzed using a benchtop flow cytometer. Using no ligand and no TAMRA-CA control well, the obtained fluorescence intensity data was normalized and plotted as dose-response curves. Reported CP50 values represent half-maximum red fluorescence which behaves inverse to cell penetration of the ligand.

[1] = CA-tagged ligands, 4 h at 37° C., L-TAT and L-Arg9, mean ± SEM (Table 10, FIG. 7)

CP50 [µM] | SMILES | further results
161 ± 25 | CC[C@H](C)[C@H](NC(=O)CCOCCOCCN(CCOCCOCCC(=O)N[C@H](C(=O)N[C@@H](CCC(=O)O)C(=O)N[C@H](C(=O)N[C@@H](CC(=O)O)C(=O)N[C@H](C(=O)O)C(C)C)[C@@H](C)O)[C@@H](C)CC)C(=O)[C@@H](CCCNC(=N)N)NC(=O)[C@@H](CCCNC(=N)N)NC(=O)[C@@H](CCCNC(=N)N)NC(=O)[C@@H](CCCNC(=N)N)NC(=O)[C@@H](CCCNC(=N)N)NC(=O)[C@@H](CCCNC(=N)N)NC(=O)[C@@H](CCCNC(=N)N)NC(=O)[C@@H](CCCNC(=N)N)NC(=O)[C@@H](CCCNC(=N)N)NC(=O)CCC(=O)NCCOCCOCCCCCCCl)C(=O)N[C@@H](CCC(=O)O)C(=O)N[C@H](C(=O)N[C@@H](CC(=O)O)C(=O)N[C@H](C(=O)O)C(C)C)[C@@H](C)O [Compound 45] | –
1.66 ± 0.43 | CC[C@H](C)[C@H](NC(=O)CCOCCOCCN(CCOCCOCCC(=O)N[C@H](C(=O)N[C@@H](CCC(=O)O)C(=O)N[C@H](C(=O)N[C@@H](CC(=O)O)C(=O)N[C@H](C(=O)O)C(C)C)[C@@H](C)O)[C@@H](C)CC)C(=O)[C@H](CCCNC(=N)N)NC(=O)[C@H](CCCNC(=N)N)NC(=O)[C@H](CCCNC(=N)N)NC(=O)[C@H](CCCNC(=N)N)NC(=O)[C@H](CCCNC(=N)N)NC(=O)[C@H](CCCNC(=N)N)NC(=O)[C@H](CCCNC(=N)N)NC(=O)CCC(=O)NCCOCCOCCCCCCCl)C(=O)N[C@@H](CCC(=O)O)C(=O)N[C@H](C(=O)N[C@@H](CC(=O)O)C(=O)N[C@H](C(=O)O)C(C)C)[C@@H](C)O [Compound 64] | –
221 ± 36 | CC[C@H](C)[C@H](NC(=O)CCOCCOCCN(CCOCCOCCC(=O)N[C@H](C(=O)N[C@@H](CCC(=O)O)C(=O)N[C@H](C(=O)N[C@@H](CC(=O)O)C(=O)N[C@H](C(=O)O)C(C)C)[C@@H](C)O)[C@@H](C)CC)C(=O)[C@@H](CCCNC(=N)N)NC(=O)[C@@H](CCCCN)NC(=O)[C@@H](CCCCN)NC(=O)[C@@H](CCCNC(=N)N)NC(=O)[C@@H](CCCNC(=N)N)NC(=O)[C@@H](CCC(N)=O)NC(=O)[C@@H](CCCNC(=N)N)NC(=O)[C@@H](CCCNC(=N)N)NC(=O)[C@@H](CCCNC(=N)N)NC(=O)CCC(=O)NCCOCCOCCCCCCCl)C(=O)N[C@@H](CCC(=O)O)C(=O)N[C@H](C(=O)N[C@@H](CC(=O)O)C(=O)N[C@H](C(=O)O)C(C)C)[C@@H](C)O [Compound 43] | –
0.51 ± 0.08 | CC(C)C[C@H](NC(=O)[C@@H](NC(=O)[C@H](CCC(=O)O)NC(=O)[C@H](CCCCN)NC(=O)CCOCCOCCN(CCOCCOCCC(=O)N[C@@H](CCCCN)C(=O)N[C@@H](CCC(=O)O)C(=O)N[C@H](C(=O)N[C@@H](CC(C)C)C(=O)N[C@H](C(=O)O)C(C)C)[C@@H](C)O)C(=O)[C@H](CCCNC(=N)N)NC(=O)[C@H](CCCNC(=N)N)NC(=O)[C@H](CCCNC(=N)N)NC(=O)[C@H](CCCNC(=N)N)NC(=O)[C@H](CCCNC(=N)N)NC(=O)[C@H](CCCNC(=N)N)NC(=O)CCC(=O)NCCOCCOCCCCCCCl)[C@@H](C)O)C(=O)N[C@H](C(=O)O)C(C)C [Compound 70] | –
0.66 ± 0.14 | CC(C)C[C@H](NC(=O)[C@@H](NC(=O)[C@H](CCC(=O)O)NC(=O)[C@H](CCCCN)NC(=O)CCOCCOCCN(CCOCCOCCC(=O)N[C@@H](CCCCN)C(=O)N[C@@H](CCC(=O)O)C(=O)N[C@H](C(=O)N[C@@H](CC(C)C)C(=O)N[C@H](C(=O)O)C(C)C)[C@@H](C)O)C(=O)[C@H](CCCNC(=N)N)NC(=O)[C@H](CCCNC(=N)N)NC(=O)[C@H](CCCNC(=N)N)NC(=O)[C@H](CCCNC(=N)N)NC(=O)[C@H](CCCNC(=N)N)NC(=O)CCC(=O)NCCOCCOCCCCCCCl)[C@@H](C)O)C(=O)N[C@H](C(=O)O)C(C)C [Compound 72] | –
67.2 ± 5.3 | CC[C@@H](C)[C@@H](NC(=O)[C@@H](CC(C)C)NC(=O)[C@H]1CCCN1C(=O)CCC(=O)NCCOCCOCCCCCCCl)C(=O)N[C@H](Cc1ccc(O)cc1)C(=O)N[C@H](CC(C)C)C(=O)N[C@H](CCCNC(=N)N)C(=O)N[C@H](CC(C)C)C(=O)N[C@H](CC(C)C)C(=O)N[C@H](CCCNC(=N)N)C(=O)NCC(=O)N[C@H](CCC(N)=O)C(=O)N[C@H](Cc1ccccc1)C(=O)N(CCOCCOCCC(=O)N[C@H](C(=O)N[C@@H](CCC(=O)O)C(=O)N[C@H](C(=O)N[C@@H](CC(=O)O)C(=O)N[C@H](C(=O)O)C(C)C)[C@@H](C)O)[C@@H](C)CC)CCOCCOCCC(=O)N[C@H](C(=O)N[C@@H](CCC(=O)O)C(=O)N[C@H](C(=O)N[C@@H](CC(=O)O)C(=O)N[C@H](C(=O)O)C(C)C)[C@@H](C)O)[C@@H](C)CC [Compound 59] | –

Continued, compound first:

SMILES | CP50 [µM] | further results
CC(C)[C@H](NC(=O)[C@@H](NC(=O)[C@@H](NC(=O)[C@H](CCC(=O)O)NC(=O)[C@H](CCCCN)NC(=O)CCOCCOCCN(CCOCCOCCC(=O)N[C@@H](CCCCN)C(=O)N[C@@H](CCC(=O)O)C(=O)N[C@H](C(=O)N[C@H](C(=O)N[C@H](C(=O)O)C(C)C)[C@@H](C)O)[C@@H](C)O)C(=O)[C@H](CCCNC(=N)N)NC(=O)[C@H](CCCNC(=N)N)NC(=O)[C@H](CCCNC(=N)N)NC(=O)[C@H](CCCNC(=N)N)NC(=O)[C@H](CCCNC(=N)N)NC(=O)[C@H](CCCNC(=N)N)NC(=O)[C@H](CCCNC(=N)N)NC(=O)[C@H](CCCNC(=N)N)NC(=O)[C@H](CCCNC(=N)N)NC(=O)CCC(=O)NCCOCCOCCCCCCCl)[C@@H](C)O)[C@@H](C)O)C(=O)O [Compound 26] | 0.74 ± 0.09 | –
CC(C)[C@H](NC(=O)[C@@H](NC(=O)[C@@H](NC(=O)[C@H](CCC(=O)O)NC(=O)[C@@H](NC(=O)CCOCCOCCN(CCOCCOCCC(=O)N[C@H](C(=O)N[C@@H](CCC(=O)O)C(=O)N[C@H](C(=O)N[C@H](C(=O)N[C@H](C(=O)O)C(C)C)C(C)C)[C@@H](C)O)C(C)C)C(=O)[C@H](CCCNC(=N)N)NC(=O)[C@H](CCCNC(=N)N)NC(=O)[C@H](CCCNC(=N)N)NC(=O)[C@H](CCC(N)=O)NC(=O)[C@H](CCCNC(=N)N)NC(=O)[C@H](CCCNC(=N)N)NC(=O)[C@H](CCCCN)NC(=O)[C@H](CCCCN)NC(=O)[C@H](CCCNC(=N)N)NC(=O)CNC(=O)[C@H](Cc1ccc(O)cc1)NC(=O)CCC(=O)NCCOCCOCCCCCCCl)C(C)C)[C@@H](C)O)C(C)C)C(=O)O [Compound 22] | – | CP50 [1]: 86.1 ± 4.5 µM
CC(C)[C@H](NC(=O)[C@@H](NC(=O)[C@@H](NC(=O)[C@H](CCC(=O)O)NC(=O)[C@H](CCCCN)NC(=O)CCOCCOCCN(CCOCCOCCC(=O)N[C@@H](CCCCN)C(=O)N[C@@H](CCC(=O)O)C(=O)N[C@H](C(=O)N[C@H](C(=O)N[C@H](C(=O)O)C(C)C)C(C)C)[C@@H](C)O)C(=O)[C@H](CCCNC(=N)N)NC(=O)[C@H](CCCNC(=N)N)NC(=O)[C@H](CCCNC(=N)N)NC(=O)[C@H](CCC(N)=O)NC(=O)[C@H](CCCNC(=N)N)NC(=O)[C@H](CCCNC(=N)N)NC(=O)[C@H](CCCCN)NC(=O)[C@H](CCCCN)NC(=O)[C@H](CCCNC(=N)N)NC(=O)CNC(=O)[C@H](Cc1ccc(O)cc1)NC(=O)CCC(=O)NCCOCCOCCCCCCCl)[C@@H](C)O)C(C)C)C(=O)O [Compound 16] | – | CP50 [1]: 81.8 ± 1.2 µM
CC(C)C[C@H](NC(=O)[C@@H](NC(=O)[C@H](CCC(=O)O)NC(=O)[C@H](CCCCN)NC(=O)CCOCCOCCN(CCOCCOCCC(=O)N[C@@H](CCCCN)C(=O)N[C@@H](CCC(=O)O)C(=O)N[C@H](C(=O)N[C@@H](CC(C)C)C(=O)N[C@H](C(=O)O)C(C)C)[C@@H](C)O)C(=O)[C@H](CCCNC(=N)N)NC(=O)[C@H](CCCNC(=N)N)NC(=O)[C@H](CCCNC(=N)N)NC(=O)[C@H](CCC(N)=O)NC(=O)[C@H](CCCNC(=N)N)NC(=O)[C@H](CCCNC(=N)N)NC(=O)[C@H](CCCCN)NC(=O)[C@H](CCCCN)NC(=O)[C@H](CCCNC(=N)N)NC(=O)CNC(=O)[C@H](Cc1ccc(O)cc1)NC(=O)CCC(=O)NCCOCCOCCCCCCCl)[C@@H](C)O)C(=O)N[C@H](C(=O)O)C(C)C [Compound 12] | – | CP50 [1]: 72.5 ± 4.4 µM
CC[C@H](C)[C@H](NC(=O)CCOCCOCCN(CCOCCOCCC(=O)N[C@H](C(=O)N[C@@H](CCC(=O)O)C(=O)N[C@H](C(=O)N[C@@H](CC(=O)O)C(=O)N[C@H](C(=O)O)C(C)C)[C@@H](C)O)[C@@H](C)CC)C(=O)[C@@H]1CC(=O)NC[C@H](NC(=O)CCC(=O)NCCOCCOCCCCCCCl)C(=O)N[C@@H](CCCCN)C(=O)N[C@@H](C)C(=O)N2CCC[C@H]2C(=O)N[C@@H](CCC(=O)O)C(=O)N[C@@H]([C@@H](C)O)C(=O)N[C@@H](C)C(=O)N[C@@H](CC(C)C)C(=O)N1)C(=O)N[C@@H](CCC(=O)O)C(=O)N[C@H](C(=O)N[C@@H](CC(=O)O)C(=O)N[C@H](C(=O)O)C(C)C)[C@@H](C)O [Compound 61] | – | CP50 (CA-tagged NPEG4-(IETDV)2 with various CPP-tags, 4 h at 37° C., mean ± SEM (Table 11, FIG. 8)): 13.2 ± 0.4 µM
